Data on 15 molecules can be found in patent publication US5766848A (Synaptic Pharmaceutical Corporation, priority 1994, dated 1998).

“And” between values parts separate entries of the source, which are not always exact repeats. Equal values may be shown once. Where a name gives a salt, the structure may show the parent alone. Read-outs that look alike come from different tables or passages of the source.

Assay [1] deals with T1, human BGT-1 (Homo sapiens, UniProt P48065).
T1 sequence (P48065 1-614 C10Y): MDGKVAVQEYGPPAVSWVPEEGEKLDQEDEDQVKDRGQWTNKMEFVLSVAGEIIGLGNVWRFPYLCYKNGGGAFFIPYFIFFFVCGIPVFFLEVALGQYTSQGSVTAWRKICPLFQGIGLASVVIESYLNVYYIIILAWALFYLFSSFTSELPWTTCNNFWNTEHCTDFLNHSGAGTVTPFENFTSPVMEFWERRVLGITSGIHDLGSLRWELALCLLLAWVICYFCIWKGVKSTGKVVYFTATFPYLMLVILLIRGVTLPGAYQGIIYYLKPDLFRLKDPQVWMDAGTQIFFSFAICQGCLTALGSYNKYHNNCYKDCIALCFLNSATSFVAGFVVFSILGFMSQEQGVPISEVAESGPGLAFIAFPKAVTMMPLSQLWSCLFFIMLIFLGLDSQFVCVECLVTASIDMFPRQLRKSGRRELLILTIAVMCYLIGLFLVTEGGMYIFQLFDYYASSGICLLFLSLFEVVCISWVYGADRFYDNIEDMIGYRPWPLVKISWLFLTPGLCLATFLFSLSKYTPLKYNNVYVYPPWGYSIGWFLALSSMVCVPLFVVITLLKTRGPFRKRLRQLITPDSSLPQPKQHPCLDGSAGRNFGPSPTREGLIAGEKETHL
As to the kind of experiment: cell-based.
Description: (§2) Cells were grown under standard conditions (37° C., 5% CO2) in Dulbecco's modified Eagles's medium (GIBCO, Grand Island, N.Y.).
(§3) After 10 minutes the medium was removed and unlabeled drugs in HBS were added (450 μl/well). […] Plates were incubated at 37° C. for 10 minutes, then washed rapidly 3× with ice-cold HBS, using a 24-position plate washer (Brandel, Gaithersburg, Mass.; model PW-12). Cells were solubilized with 0.05% sodium deoxycholate/0.1N NaOH (0.25 ml/well), an aliquot neutralized with 1N HCl, and radioactivity was determined by scintillation counting. Protein was quantified in an aliquot of the solubilized cells using a BIO-RAD protein assay kit, according to the manufacturer's directions.
(§4) Data Analysis: Competition curves were conducted in duplicate, using 10 concentrations of unlabeled drug. […] All data throughout the paper represent means±SEM.
(§5) Cells were grown under standard conditions (37° C., 5% CO2) in DMEM (Dulbecco's modified Eagles's medium; GIBCO, Grand Island, N.Y.).
(§6) Cells grown in 24-well plates were washed 3× with HEPES-buffered saline (HBS, in mM: NaCl, 150; HEPES, 20; CaCl2, 1; glucose, 10; KCl, 5; MgCl2 1; pH 7.4) and allowed to equilibrate on a 37° C. slide warmer. After 10 minutes the medium was removed and unlabeled drugs in HBS were added (450 μl/well). […] Plates were incubated at 37° C. for 10 minutes, then washed rapidly 3× with ice-cold HBS, using a 24-position plate washer (Brandel, Gaithersburg, Mass.; model PW-12). Cells were solubilized with 0.05% sodium deoxycholate/0.1N NaOH (0.25 ml/well), an aliquot neutralized with 1N HCl, and radioactivity was determined by scintillation counting. Protein was quantified in an aliquot of the solubilized cells using a BIO-RAD protein assay kit, according to the manufacturer's directions.
(§7) Competition curves were conducted in duplicate, using 10 concentrations of unlabeled drug. […] All data throughout the paper represent means±S.E.M.

The test system of assay [2] is brain synaptosomes. The conditions noted are these: Ali et al. (1985); cited from earlier work.
Assay [3] addresses T2, mouse GAT-2 (Mus musculus, UniProt P31651).
T2 sequence (P31651 1-614): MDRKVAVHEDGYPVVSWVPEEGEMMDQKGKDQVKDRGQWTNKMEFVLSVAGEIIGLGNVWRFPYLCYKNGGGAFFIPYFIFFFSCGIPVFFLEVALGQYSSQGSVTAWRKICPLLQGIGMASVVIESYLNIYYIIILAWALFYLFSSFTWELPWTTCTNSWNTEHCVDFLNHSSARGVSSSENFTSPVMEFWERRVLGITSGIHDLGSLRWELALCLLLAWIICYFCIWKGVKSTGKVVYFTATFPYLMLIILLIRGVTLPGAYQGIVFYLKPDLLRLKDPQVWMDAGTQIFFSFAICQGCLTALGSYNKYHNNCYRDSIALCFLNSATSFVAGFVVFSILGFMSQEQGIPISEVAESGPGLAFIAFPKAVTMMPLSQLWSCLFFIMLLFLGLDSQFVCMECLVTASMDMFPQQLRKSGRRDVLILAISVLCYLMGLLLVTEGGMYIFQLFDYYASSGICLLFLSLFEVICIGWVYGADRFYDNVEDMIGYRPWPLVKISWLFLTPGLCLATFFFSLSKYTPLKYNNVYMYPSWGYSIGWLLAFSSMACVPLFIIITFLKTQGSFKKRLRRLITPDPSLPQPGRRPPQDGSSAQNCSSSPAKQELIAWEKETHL
The arrangement: host or cells: oocytes (Lopez-Corcuera et al., 1992). The conditions noted are these: read-out: IC50, mouse GAT-2, inhibition of [3H]GABA uptake; oocytes (Lopez-Corcuera et al., 1992); except GABA estimated from percent inhibition at one or two concentrations; cited from earlier work.

For assay [4], the system named is GAT-2 and GAT-3. As to the kind of experiment: Inhibition of [3H]GABA uptake at cloned GAT-2 and GAT-3, text summary. The conditions noted are these: read-out: IC50s at GAT-2 and GAT-3 (range); range over clones, regardless of species.
Description: as §5, §6, §7
Assay [5] relates to neuronal cultures. As to the kind of experiment: Inhibition of [3H]GABA uptake in primary rat neuronal cultures. It is filed as cell-based. As for the experimental part:
Brains were removed aseptically from E17 embryonic Sprague-Dawley rats brains, carefully dissected free of meninges, and kept on ice. A single-cell suspension was made by mincing the brains, followed by trituration through a serological pipet. […] On day three cytosine β-D-arabinofuransoside (3 μM) was added to control the proliferation of non-neuronal cells. The cultures were used for transport assay approximately one week after plating.
(§1) Data represent means±SEM.

For assay [6], the system named is Type 1 astrocytes. As to the kind of experiment: Inhibition of [3H]GABA uptake in Type 1 astrocyte cultures. The settings on record: read-out: IC50, Type 1 astrocytes, inhibition of [3H]GABA uptake. In kind it is cell-based, rat. As for the experimental part: Preparation of primary rat astrocyte cell cultures: Primary glial cultures were established from newborn Sprague-Dawley rat brains. Brains minus cerebella were removed aseptically and carefully dissected free of meninges. […] The cells were dissociated by trituration through a serological pipet. Separate procedures were then used for the preparation of Type-1 and O-2A/Type-2 astrocyte cultures, as will now be described.
For the preparation of Type-1 astrocyte cultures, cells were plated onto uncoated 75 cm^2 flasks at low density (1 brain per 10 flasks, or approximately 8×10^4 cells/cm^2). The medium was changed the following day and twice a week thereafter.
as §1

Assay [7] has as its system rat brain aggregates. The assay is described as follows: Inhibition of [3H]GABA uptake in rat brain aggregates. In kind it is cell-based. The conditions noted are these: read-out: IC50, control, inhibition of [3H]GABA uptake in rat brain aggregates. Here is the method:
Briefly, adult rat brains were removed from the skull and the cerebral cortex was dissected and placed in ice-cold HBS. […] The preparation was washed once by centrifugation, then resuspended in HBS.
The filters were washed with ice-cold HBS, punched into vials, and radioactivity determined by scintillation counting. Protein was determined in an aliquot of the aggregate preparation using the BIO-RAD protein assay kit.
as §1

The target in assay [8] is T3, rat GAT-2 (Rattus norvegicus, UniProt P31646).
T3 construct: expressed in transfected cells
T3 sequence (P31646 1-602): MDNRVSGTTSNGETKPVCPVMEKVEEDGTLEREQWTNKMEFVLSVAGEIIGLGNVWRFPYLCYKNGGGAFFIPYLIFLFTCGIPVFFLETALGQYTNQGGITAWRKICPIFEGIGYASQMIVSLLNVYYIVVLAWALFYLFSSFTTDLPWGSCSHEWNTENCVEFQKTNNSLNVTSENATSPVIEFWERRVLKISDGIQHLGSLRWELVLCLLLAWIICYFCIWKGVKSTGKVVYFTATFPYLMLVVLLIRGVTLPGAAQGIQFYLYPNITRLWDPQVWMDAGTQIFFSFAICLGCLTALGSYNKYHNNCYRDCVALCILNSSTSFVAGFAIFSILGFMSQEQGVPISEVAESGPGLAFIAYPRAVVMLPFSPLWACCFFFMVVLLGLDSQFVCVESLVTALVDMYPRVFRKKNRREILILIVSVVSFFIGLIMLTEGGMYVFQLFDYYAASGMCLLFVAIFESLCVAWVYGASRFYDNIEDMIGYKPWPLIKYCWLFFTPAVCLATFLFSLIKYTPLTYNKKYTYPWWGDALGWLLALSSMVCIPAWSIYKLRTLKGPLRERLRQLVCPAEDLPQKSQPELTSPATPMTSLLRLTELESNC
As to the kind of experiment: Inhibition of [3H]GABA uptake, rat GAT-2 stable LM(tk-) cell line. In kind it is cell-based. The settings on record: read-out: IC50, rat GAT-2, inhibition of [3H]GABA uptake, Table 9, means ± S.E.M.
Description: as §5, §6, §7

Assay [9] deals with T4, human GAT-3 (Homo sapiens, UniProt P48066).
T4 construct: expressed in transfected cells
T4 sequence (P48066 1-632): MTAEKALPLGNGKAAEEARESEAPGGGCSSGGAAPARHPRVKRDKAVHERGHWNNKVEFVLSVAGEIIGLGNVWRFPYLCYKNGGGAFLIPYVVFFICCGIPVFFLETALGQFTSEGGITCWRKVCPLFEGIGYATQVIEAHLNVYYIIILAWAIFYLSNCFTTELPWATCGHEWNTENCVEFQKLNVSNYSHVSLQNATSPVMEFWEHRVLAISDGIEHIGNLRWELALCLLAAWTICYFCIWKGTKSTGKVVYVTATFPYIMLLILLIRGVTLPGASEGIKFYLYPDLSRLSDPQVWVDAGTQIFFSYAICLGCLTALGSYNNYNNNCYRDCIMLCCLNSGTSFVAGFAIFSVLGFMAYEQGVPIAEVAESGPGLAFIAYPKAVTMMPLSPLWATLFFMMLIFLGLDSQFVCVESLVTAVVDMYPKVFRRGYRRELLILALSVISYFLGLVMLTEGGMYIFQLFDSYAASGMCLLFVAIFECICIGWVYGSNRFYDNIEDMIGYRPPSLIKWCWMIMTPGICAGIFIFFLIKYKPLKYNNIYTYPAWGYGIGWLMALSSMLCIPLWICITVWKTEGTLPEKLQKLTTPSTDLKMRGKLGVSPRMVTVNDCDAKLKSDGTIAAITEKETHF
As to the kind of experiment: Inhibition of [3H]GABA uptake, human GAT-3 stable LM(tk-) cell line. It is filed as cell-based. The settings on record: read-out: IC50, human GAT-3, inhibition of [3H]GABA uptake, Table 9, means ± S.E.M.
Description: as §5, §6, §7

For assay [10], the system named is GAT-2 and GAT-3. The conditions noted are these: range over clones, regardless of species.
Description: as §5, §6, §7
The subject of assay [11] is GAT-1. The conditions noted are these: range over compounds and human/rat clones.
Description: as §5, §6, §7
Assay [12] concerns the target human GAT-1 (Homo sapiens, UniProt P30531). The conditions noted are these: read-out: IC50, human GAT-1, inhibition of [3H]GABA uptake; Table 9; stable LM(tk-) cell line; means ± S.E.M.
Description: as §5, §6, §7
Assay [13] addresses T1, human BGT-1. The conditions noted are these: read-out: IC50, hBGT-1, inhibition of [3H]GABA uptake.
Description: as §2, §3, §4, §5, §6, §7
Assay [14] deals with dog BGT-1. The settings on record: read-out: IC50, dog VGT-1, inhibition of [3H]GABA uptake; oocytes (Yamauchi et al., 1992); except GABA estimated from percent inhibition at a single concentration; cited from earlier work.
The target of assay [15] is T2, mouse GAT-2. The settings on record: from Table 1.
For assay [16] the following is noted: literature reports; cited from earlier work.
Setting [17] is: IC50, hBGT-1, inhibition of [3H]GABA uptake, stably transfected LM(tk-), 50 nM [3H]GABA, mean ± standard error of at least three experiments.
Setting [18] is: IC50, hBGT-1, inhibition of [3H]GABA uptake.
Setting [19] is: Rattus norvegicus, Astrocyte, 3 h.

human GAT-1, sequence (P30531 whole entry): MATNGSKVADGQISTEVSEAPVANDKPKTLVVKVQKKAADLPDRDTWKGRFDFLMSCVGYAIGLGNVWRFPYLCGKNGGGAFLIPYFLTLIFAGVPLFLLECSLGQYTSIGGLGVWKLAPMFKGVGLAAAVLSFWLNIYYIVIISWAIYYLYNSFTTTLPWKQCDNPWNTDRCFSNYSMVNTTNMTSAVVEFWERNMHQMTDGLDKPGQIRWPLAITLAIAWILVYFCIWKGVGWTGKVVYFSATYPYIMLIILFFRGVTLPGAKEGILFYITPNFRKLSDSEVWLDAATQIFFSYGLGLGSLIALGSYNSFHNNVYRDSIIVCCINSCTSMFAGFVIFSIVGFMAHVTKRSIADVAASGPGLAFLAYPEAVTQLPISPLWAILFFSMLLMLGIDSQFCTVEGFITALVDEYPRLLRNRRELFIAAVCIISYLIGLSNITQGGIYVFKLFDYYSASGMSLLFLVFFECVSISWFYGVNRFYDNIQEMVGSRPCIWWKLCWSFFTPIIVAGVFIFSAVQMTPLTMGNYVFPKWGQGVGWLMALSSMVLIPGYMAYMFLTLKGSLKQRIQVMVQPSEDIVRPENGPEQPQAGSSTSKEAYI

Regarding `O=C(CCc1ccc(O)cc1)c1c(O)cc(O)cc1O` [phloretin], the IC50 in assay [1] (setting [17]) is 160 to 600 µM and 160 µM.
Regarding `N=C(N)NCCS(=O)(=O)O` [GES, guanidinoethanesulfonic acid], the IC50 in assay [1] (setting [17]) is 1520 µM.
Turning to `O=C(O)C1=CCCN(CCC=C(c2ccccc2)c2ccccc2)C1` [SK&F 100330-A], the “increase in potency over the parent compound (nipecotic acid or guvacine)” value in assay [2] was 20 fold.
For `NCCS(=O)O` [hypotaurine], the IC50 in [1] (setting [18]) was 160 to 600 µM and 380 µM.
`C=C[C@H]1C[N@@]2CC[C@H]1C[C@@H]2[C@@H](O)c1ccnc2ccc(OC)cc12` [quinidine]: the IC50 in [1] (setting [18]) was 1190 µM; in assay [3] it was 49 µM.
Regarding `NCCC(=O)O` [β-alanine], the figures for the IC50 in assay [4] and in assay [3] were 19 to 110 µM and 1900 µM, respectively.
`O=C(O)C1=CCCN(CCON=C(c2ccccc2)c2ccccc2)C1` [NNC-711, 1-(2-(((diphenylmethylene)amino)oxy)ethyl)-1,2,4,6-tetrahydro-3-pyridinecarboxylic acid hydrochloride] displayed an IC50 in [1] (setting [17]) of 160 to 600 µM. In addition, in assay [5] (read-out: specific [3H]GABA uptake that persisted in neuronal cultures), the activity at 10 µM turned out to be 31 ± 1%.
`NCCS(=O)(=O)O` [taurine]: the IC50 is 10600 µM in assay [1] (setting [18]); over 10000 µM in assay [1] (IC50 at hBGT-1 as stated in text); about 50 µM in assay [6] (setting [19]); 47 ± 10 µM in assay [6]; 64000 µM in assay [7] (Rattus norvegicus); 8300 µM in assay [5] (Neuron, read-out: IC50, Neurons, inhibition of [3H]GABA uptake).
Consider `O=C(O)C1=CCCNC1` [guvacine], for which the IC50 in assay [8] was 58 ± 5 µM; in assay [9], 119 ± 24 µM; in [12], 14 ± 3 µM; in [3] it was 2800 µM. Further, in [10], the “IC50s at GAT-2 and GAT-3 (range)” value lay in the range of 102 to 378 µM. The “IC50s at GAT-1 (range)” value in assay [11] lay in the range of 14 to 39 µM.
As for hydroxynipecotic acid, the IC50 in [13] came out at 2590 µM; in assay [7] (absence of NNC-711) it was 10 ± 1 µM.
In turn, `N[C@@H]1CCC[C@H](C(=O)O)C1` (relative stereo) [ACHC, cis-3-aminocyclohexanecarboxylic acid] had an IC50 in [1] (setting [18]) of 1850 µM.
Regarding `NCC[C@H](N)C(=O)O` [L-DABA, L-(2,4)diaminobutyric acid], the IC50 in assay [1] (setting [18]) is 160 to 600 µM and 354 µM; in assay [14] it was 4700 µM; in [6] (setting [19]), 3400 µM.
`O=C(O)C1CCCNC1` (racemic) [(±)-nipecotic acid, (R,S)-nipecotic acid]: the IC50 in assay [14] is 4700 µM.
`C[N+](C)(C)CC(=O)O` [betaine]: the IC50 in assay [1] (setting [17]) is 934 ± 22 µM; in [1] (IC50 at hBGT-1 as stated in text, stable LM(tk-) cells, [3H]GABA uptake), 1000 to 2000 µM; in assay [3], 206 µM. Besides, in assay [15], the “selectivity (potency) for mouse BGT-1 as compared to dog BGT-1” value worked out at 2 fold. For the same molecule, in [15], the “selectivity (potency) for mouse BGT-1 as compared to human BGT-1” value stood at 5 fold.
`O=C(O)C1CCCN(CCC=C(c2ccccc2)c2ccccc2)C1` (stereo not shown) [SK&F 89976-A, N-(4,4-diphenyl-3-butenyl)-3-piperidinecarboxylic acid]: in assay [9], the IC50 was determined as 944 ± 259 µM. Moreover, the “anticonvulsive activity in animals” value in assay [16] is “display anticonvulsive activity”. For the same molecule, the “increase in potency over the parent compound (nipecotic acid or guvacine)” value in [2] is 20 fold.
